# Assays:
# Set-up in all cases: scale not given here
# CASOB Sicklepod [1] = assay: Preemergence herbicidal evaluation, CASOB; type: in vivo, Cassia obtusifolia, L.; details: preemergence
# Summary of the method: (§1)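 Seeds mixed with potting soil were planted on about one inch of soil in cups, then sprayed with the test compound in aqueous acetone at roughly 0.013 to 0.800 kg per hectare. Plants were kept under standard greenhouse care and injury was rated four to five weeks after treatment.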
# ZEAMX Corn, Field [2] = assay: Postemergence herbicidal evaluation, ZEAMX; type: in vivo, Zea mays, L. (Sammel-Bezeichnung); details: postemergence spray, rated about two-three weeks after treatment
# Summary of the method: (§2)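 Plants are raised for roughly two weeks, then treated postemergence with compound dispersed in acetone/water (80/20) plus 1.0% seed oil adjuvant, at rates of about 0.006 kg to 0.400 kg per hectare. After greenhouse care, damage is scored two to three weeks later.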
# ABUTH Velvetleaf [3] = assay: Preemergence herbicidal evaluation, ABUTH; type: in vivo, Abutilon theophrasti, Medic.; details: preemergence
# Summary of the method: as §1
# [4] = test system: TRZAWR Wheat, Winter, cv Riband; assay: Preemergence herbicidal evaluation, TRZAWR; type: in vivo, Triticum aestivum; details: preemergence
# Summary of the method: as §1
# GLXMAW Soybean, Williams [5] = assay: Postemergence herbicidal evaluation, GLXMAW; type: in vivo, Glycine max, (L.) Merr. cv Williams; details: postemergence spray, rated about two-three weeks after treatment
# Summary of the method: as §2
# [6] = test system: CHEAL Lambsquarters, Common; assay: Postemergence herbicidal evaluation, CHEAL; type: in vivo, Chenopodium album, L.; details: postemergence spray, rated about two-three weeks after treatment
# Summary of the method: as §2
# GLXMAW Soybean, Williams [7] = assay: Preemergence herbicidal evaluation, GLXMAW; type: in vivo, Glycine max, (L.) Merr. cv Williams; details: preemergence
# Summary of the method: as §1
# GALAP Galium [8] = assay: Preemergence herbicidal evaluation, GALAP; type: in vivo, Galium aparine; details: preemergence
# Summary of the method: as §1
# ABUTH Velvetleaf [9] = assay: Postemergence herbicidal evaluation, ABUTH; type: in vivo, Abutilon theophrasti, Medic.; details: postemergence spray, rated about two-three weeks after treatment
# Summary of the method: as §2
# SETVI Foxtail, Green [10] = assay: Preemergence herbicidal evaluation, SETVI; type: in vivo, Setaria viridis, (L.) Beau; details: preemergence
# Summary of the method: as §1
# CASOB Sicklepod [11] = assay: Postemergence herbicidal evaluation, CASOB; type: in vivo, Cassia obtusifolia, L.; details: postemergence spray, rated about two-three weeks after treatment
# Summary of the method: as §2
# AMBEL Ragweed, Common [12] = assay: Postemergence herbicidal evaluation, AMBEL; type: in vivo, Ambrosia artemisifolia, L.; details: postemergence spray, rated about two-three weeks after treatment
# Summary of the method: as §2
# ORYSAT Rice, Tebonnet [13] = assay: Postemergence herbicidal evaluation, ORYSAT; type: in vivo, Oryza sativa, (L.); details: postemergence spray, rated about two-three weeks after treatment
# Summary of the method: as §2
# GALAP Galium [14] = assay: Postemergence herbicidal evaluation, GALAP; type: in vivo, Galium aparine; details: postemergence spray, rated about two-three weeks after treatment
# Summary of the method: as §2
# [15] = test system: CHEAL Lambsquarters, Common; assay: Preemergence herbicidal evaluation, CHEAL; type: in vivo, Chenopodium album, L.; details: preemergence
# Summary of the method: as §1
# [16] = test system: IPOHE Morningglory, Ivyleaf; assay: Preemergence herbicidal evaluation, IPOHE; type: in vivo, Ipomoea hederacea, (L.) Jacq.; details: preemergence
# Summary of the method: as §1
# [17] = test system: TRZAWR Wheat, Winter, cv Riband; assay: Postemergence herbicidal evaluation, TRZAWR; type: in vivo, Triticum aestivum; details: postemergence spray, rated about two-three weeks after treatment
# Summary of the method: as §2
# [18] = test system: IPOHE Morningglory, Ivyleaf; assay: Postemergence herbicidal evaluation, IPOHE; type: in vivo, Ipomoea hederacea, (L.) Jacq.; details: postemergence spray, rated about two-three weeks after treatment
# Summary of the method: as §2
# ECHOG Barnyardgrass [19] = assay: Preemergence herbicidal evaluation, ECHOG; type: in vivo, Echinochloa crus-galli, (L.) Beau; details: preemergence
# Summary of the method: as §1
# ZEAMX Corn, Field [20] = assay: Preemergence herbicidal evaluation, ZEAMX; type: in vivo, Zea mays, L. (Sammel-Bezeichnung); details: preemergence
# Summary of the method: as §1
# AMBEL Ragweed, Common [21] = assay: Preemergence herbicidal evaluation, AMBEL; type: in vivo, Ambrosia artemisifolia, L.; details: preemergence
# Summary of the method: as §1
# ECHOG Barnyardgrass [22] = assay: Postemergence herbicidal evaluation, ECHOG; type: in vivo, Echinochloa crus-galli, (L.) Beau; details: postemergence spray, rated about two-three weeks after treatment
# Summary of the method: as §2
# SETVI Foxtail, Green [23] = assay: Postemergence herbicidal evaluation, SETVI; type: in vivo, Setaria viridis, (L.) Beau; details: postemergence spray, rated about two-three weeks after treatment
# Summary of the method: as §2
# ORYSAT Rice, Tebonnet [24] = assay: Preemergence herbicidal evaluation, ORYSAT; type: in vivo, Oryza sativa, (L.); details: preemergence
# Summary of the method: as §1
compound,measurement,setting,value
COc1ccc(Cl)cc1-n1nnc2cc(F)c(-n3c(=O)cc(C(F)(F)F)n(C)c3=O)cc21 [Example 30],CASOB herbicidal rating,CASOB Sicklepod [1]; rate 0.016 kg/ha,0.0
same,CASOB herbicidal rating,CASOB Sicklepod [1]; rate 0.032 kg/ha,1.0
same,CASOB herbicidal rating,CASOB Sicklepod [1]; rate 0.062 kg/ha,0.0
same,CASOB herbicidal rating,CASOB Sicklepod [1]; rate 0.125 kg/ha,2.0
same,Postemergence herbicidal rating ZEAMX,"ZEAMX Corn, Field [2]; 0.008 kg/ha",4.5
same,Postemergence herbicidal rating ZEAMX,"ZEAMX Corn, Field [2]; 0.016 kg/ha",4.5
same,Postemergence herbicidal rating ZEAMX,"ZEAMX Corn, Field [2]; 0.032 kg/ha",5.0
same,Postemergence herbicidal rating ZEAMX,"ZEAMX Corn, Field [2]; 0.062 kg/ha",5.0
same,ABUTH herbicidal rating,ABUTH Velvetleaf [3]; rate 0.016 kg/ha,0.0
same,ABUTH herbicidal rating,ABUTH Velvetleaf [3]; rate 0.125 kg/ha,6.0
same,TRZAWR herbicidal rating,[4]; rate 0.016 kg/ha,0.0
same,TRZAWR herbicidal rating,[4]; rate 0.032 kg/ha,1.0
same,TRZAWR herbicidal rating,[4]; rate 0.062 kg/ha,2.0
same,TRZAWR herbicidal rating,[4]; rate 0.125 kg/ha,2.0
same,Postemergence herbicidal rating GLXMAW,"GLXMAW Soybean, Williams [5]; 0.008 kg/ha",6.5
same,Postemergence herbicidal rating GLXMAW,"GLXMAW Soybean, Williams [5]; 0.016 kg/ha",6.5
same,Postemergence herbicidal rating GLXMAW,"GLXMAW Soybean, Williams [5]; 0.032 kg/ha",8.0
same,Postemergence herbicidal rating GLXMAW,"GLXMAW Soybean, Williams [5]; 0.062 kg/ha",8.0
same,Postemergence herbicidal rating CHEAL,[6]; 0.008 kg/ha,9.0
same,Postemergence herbicidal rating CHEAL,[6]; 0.016 kg/ha,9.0
same,Postemergence herbicidal rating CHEAL,[6]; 0.032 kg/ha,9.0
same,Postemergence herbicidal rating CHEAL,[6]; 0.062 kg/ha,9.0
same,GLXMAW herbicidal rating,"GLXMAW Soybean, Williams [7]; rate 0.016 kg/ha",1.0
same,GLXMAW herbicidal rating,"GLXMAW Soybean, Williams [7]; rate 0.032 kg/ha",1.0
same,GLXMAW herbicidal rating,"GLXMAW Soybean, Williams [7]; rate 0.062 kg/ha",1.0
same,GLXMAW herbicidal rating,"GLXMAW Soybean, Williams [7]; rate 0.125 kg/ha",2.0
same,GALAP herbicidal rating,GALAP Galium [8]; rate 0.016 kg/ha,2.0
same,GALAP herbicidal rating,GALAP Galium [8]; rate 0.032 kg/ha,2.0
same,GALAP herbicidal rating,GALAP Galium [8]; rate 0.062 kg/ha,3.0
same,GALAP herbicidal rating,GALAP Galium [8]; rate 0.125 kg/ha,4.0
same,Postemergence herbicidal rating ABUTH,ABUTH Velvetleaf [9]; 0.008 kg/ha,9.0
same,Postemergence herbicidal rating ABUTH,ABUTH Velvetleaf [9]; 0.016 kg/ha,9.0
same,Postemergence herbicidal rating ABUTH,ABUTH Velvetleaf [9]; 0.032 kg/ha,9.0
same,Postemergence herbicidal rating ABUTH,ABUTH Velvetleaf [9]; 0.062 kg/ha,9.0
same,SETVI herbicidal rating,"SETVI Foxtail, Green [10]; rate 0.016 kg/ha",4.0
same,SETVI herbicidal rating,"SETVI Foxtail, Green [10]; rate 0.032 kg/ha",7.0
same,SETVI herbicidal rating,"SETVI Foxtail, Green [10]; rate 0.062 kg/ha",9.0
same,SETVI herbicidal rating,"SETVI Foxtail, Green [10]; rate 0.125 kg/ha",9.0
same,Postemergence herbicidal rating CASOB,CASOB Sicklepod [11]; 0.008 kg/ha,3.0
same,Postemergence herbicidal rating CASOB,CASOB Sicklepod [11]; 0.016 kg/ha,4.0
same,Postemergence herbicidal rating CASOB,CASOB Sicklepod [11]; 0.032 kg/ha,7.0
same,Postemergence herbicidal rating CASOB,CASOB Sicklepod [11]; 0.062 kg/ha,8.0
same,Postemergence herbicidal rating AMBEL,"AMBEL Ragweed, Common [12]; 0.008 kg/ha",9.0
same,Postemergence herbicidal rating AMBEL,"AMBEL Ragweed, Common [12]; 0.016 kg/ha",9.0
same,Postemergence herbicidal rating AMBEL,"AMBEL Ragweed, Common [12]; 0.032 kg/ha",9.0
same,Postemergence herbicidal rating AMBEL,"AMBEL Ragweed, Common [12]; 0.062 kg/ha",9.0
same,Postemergence herbicidal rating ORYSAT,"ORYSAT Rice, Tebonnet [13]; 0.008 kg/ha",3.5
same,Postemergence herbicidal rating ORYSAT,"ORYSAT Rice, Tebonnet [13]; 0.016 kg/ha",3.5
same,Postemergence herbicidal rating ORYSAT,"ORYSAT Rice, Tebonnet [13]; 0.032 kg/ha",4.0
same,Postemergence herbicidal rating ORYSAT,"ORYSAT Rice, Tebonnet [13]; 0.062 kg/ha",4.5
same,Postemergence herbicidal rating GALAP,GALAP Galium [14]; 0.008 kg/ha,1.0
same,Postemergence herbicidal rating GALAP,GALAP Galium [14]; 0.016 kg/ha,3.0
same,Postemergence herbicidal rating GALAP,GALAP Galium [14]; 0.032 kg/ha,4.0
same,Postemergence herbicidal rating GALAP,GALAP Galium [14]; 0.062 kg/ha,4.0
same,CHEAL herbicidal rating,[15]; rate 0.016 kg/ha,9.0
same,CHEAL herbicidal rating,[15]; rate 0.032 kg/ha,9.0
same,CHEAL herbicidal rating,[15]; rate 0.062 kg/ha,9.0
same,CHEAL herbicidal rating,[15]; rate 0.125 kg/ha,9.0
same,IPOHE herbicidal rating,[16]; rate 0.016 kg/ha,0.0
same,IPOHE herbicidal rating,[16]; rate 0.032 kg/ha,0.0
same,IPOHE herbicidal rating,[16]; rate 0.062 kg/ha,4.0
same,IPOHE herbicidal rating,[16]; rate 0.125 kg/ha,3.0
same,Postemergence herbicidal rating TRZAWR,[17]; 0.008 kg/ha,3.5
same,Postemergence herbicidal rating TRZAWR,[17]; 0.016 kg/ha,3.5
same,Postemergence herbicidal rating TRZAWR,[17]; 0.032 kg/ha,4.0
same,Postemergence herbicidal rating TRZAWR,[17]; 0.062 kg/ha,4.5
same,Postemergence herbicidal rating IPOHE,[18]; 0.008 kg/ha,9.0
same,Postemergence herbicidal rating IPOHE,[18]; 0.016 kg/ha,9.0
same,Postemergence herbicidal rating IPOHE,[18]; 0.032 kg/ha,9.0
same,Postemergence herbicidal rating IPOHE,[18]; 0.062 kg/ha,9.0
same,ECHCG herbicidal rating,ECHOG Barnyardgrass [19]; rate 0.016 kg/ha,1.0
same,ECHCG herbicidal rating,ECHOG Barnyardgrass [19]; rate 0.032 kg/ha,5.0
same,ECHCG herbicidal rating,ECHOG Barnyardgrass [19]; rate 0.062 kg/ha,7.0
same,ECHCG herbicidal rating,ECHOG Barnyardgrass [19]; rate 0.125 kg/ha,7.0
same,ZEAMX herbicidal rating,"ZEAMX Corn, Field [20]; rate 0.016 kg/ha",1.0
same,ZEAMX herbicidal rating,"ZEAMX Corn, Field [20]; rate 0.032 kg/ha",3.0
same,ZEAMX herbicidal rating,"ZEAMX Corn, Field [20]; rate 0.062 kg/ha",5.0
same,ZEAMX herbicidal rating,"ZEAMX Corn, Field [20]; rate 0.125 kg/ha",7.0
same,AMBEL herbicidal rating,"AMBEL Ragweed, Common [21]; rate 0.016 kg/ha",0.0
same,AMBEL herbicidal rating,"AMBEL Ragweed, Common [21]; rate 0.032 kg/ha",0.0
same,AMBEL herbicidal rating,"AMBEL Ragweed, Common [21]; rate 0.062 kg/ha",3.0
same,AMBEL herbicidal rating,"AMBEL Ragweed, Common [21]; rate 0.125 kg/ha",6.0
same,Postemergence herbicidal rating ECHCG,ECHOG Barnyardgrass [22]; 0.008 kg/ha,2.0
same,Postemergence herbicidal rating ECHCG,ECHOG Barnyardgrass [22]; 0.016 kg/ha,4.0
same,Postemergence herbicidal rating ECHCG,ECHOG Barnyardgrass [22]; 0.032 kg/ha,4.0
same,Postemergence herbicidal rating ECHCG,ECHOG Barnyardgrass [22]; 0.062 kg/ha,6.0
same,Postemergence herbicidal rating SETVI,"SETVI Foxtail, Green [23]; 0.008 kg/ha",7.0
same,Postemergence herbicidal rating SETVI,"SETVI Foxtail, Green [23]; 0.016 kg/ha",6.0
same,Postemergence herbicidal rating SETVI,"SETVI Foxtail, Green [23]; 0.032 kg/ha",9.0
same,Postemergence herbicidal rating SETVI,"SETVI Foxtail, Green [23]; 0.062 kg/ha",9.0
same,ORYSAT herbicidal rating,"ORYSAT Rice, Tebonnet [24]; rate 0.016 kg/ha",0.0
same,ORYSAT herbicidal rating,"ORYSAT Rice, Tebonnet [24]; rate 0.032 kg/ha",1.0
same,ORYSAT herbicidal rating,"ORYSAT Rice, Tebonnet [24]; rate 0.062 kg/ha",2.0
same,ORYSAT herbicidal rating,"ORYSAT Rice, Tebonnet [24]; rate 0.125 kg/ha",4.0
